pEC50: −log10 of the molar value. Entries after “also recorded” stand apart in the source; their conditions may differ. Like-named read-outs stand apart in the source and are kept apart here.
Columns and labels:
DENV-1 replicon = assay: Luciferase reporter replicon-based screening, DENV-1; type: cell-based, DENV-1 (strain WestPac); conditions: for pEC50: Dengue virus, DENV1, Huh-7, 48 h, read-out: EC50 DENV-1
Summary of the method: (§1)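 Huh7 cells carrying Renilla luciferase/neo replicons of DENV-1 (WestPac), DENV-2 (NGC), DENV-3 (D3MY05-34640) or DENV-4 (D4MY01-22713), treated with 2-fold compound dilutions for 48 h at 37 °C in duplicate. Live-cell luciferase read; EC50 by four-parameter logistic fit.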

DENV-2 replicon = assay: Luciferase reporter replicon-based screening, DENV-2; type: cell-based, DENV-2 (New Guinea C strain, NGC)
Summary of the method: as §1

DENV-3 replicon = assay: Luciferase reporter replicon-based screening, DENV-3; type: cell-based, DENV-3 (strain D3MY05-34640)
Summary of the method: as §1

DENV-4 replicon = assay: Luciferase reporter replicon-based screening, DENV-4; type: cell-based, DENV-4 (strain D4MY01-22713); conditions: for pEC50: Dengue virus, DENV4, Huh-7, 48 h, read-out: EC50 DENV-4
Summary of the method: as §1

[1] = Cytotoxicity assay (CellTiter-Glo); type: cell-based; conditions: human, Huh7 cells stably expressing DENV-2 replicon
Summary of the method: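 Huh7 or Huh7 replicon cells, seeded overnight at 37 °C, exposed to 2-fold serial dilutions of compound for 48 h in duplicate. Viability by CellTiter-Glo, normalised to 0.45% DMSO wells (100%); CC50 by four-parameter logistic regression.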

[2] = test system: P12 resistant DENV-2 viruses (NS4B V63M or V63L); type: cell-based, DENV-2 strain NGC; conditions: after twelve rounds of selection with compound 63, selections III to VI, Huh7 cells
[3] = biological target: T1, DENV-2 viral NS4B protein (Dengue virus type 2, UniProt P14340); assay: Pull-down assay with biotinylated compounds; type: binding, DENV-2 strain NGC; conditions: lysates of DENV-2 infected Huh7 cells, streptavidin beads, Western blot
T1 construct: endogenous in cells; host or cells: Huh7 cells infected with DENV-2 strain NGC (virus-encoded protein in the lysate)
Description: Pull-Down Assay. 4 × 10^6 Huh7 cells were seeded in a T-75 flask. The next day, cells were infected with DENV-2 strain NGC at a MOI of 2.0 in the presence of 10 µM compound 73 or 75. Cells treated with 0.25% DMSO were used as a control. After 48 h-incubation at 37° C., cells were harvested and lysed in 500 µL lysis buffer comprising 20 mM Tris-HCL pH 7.5, 100 mM NaCl, 0.5% DDM, and EDTA-free protease inhibitor cocktail (Roche). After removing the cell debris by centrifugation at 15000 rpm for 10 min, the lysates were mixed with corresponding compound at a final concentration of 100 µM or DMSO (0.25%) prior to incubation with 80 µL Streptavidin Magnetic Beads (ThermoFisher Scientific). After incubation at 4° C. overnight with agitation, the beads were washed 5 times with PBST buffer (PBS containing 0.1% Tween 20). The beads were finally mixed with 1 × LDS sample buffer (ThermoFisher Scientific) containing 100 mM dithiothreitol (DTT, Sigma-Aldrich) and heated at 95° C. for 10 minutes to elute the bead-associated proteins. The eluates and cell lysates were loaded onto a 12% SDS-PAGE and viral NS4B proteins were detected by a mouse monoclonal antibody according to the protocol as reported previously.^56

[4] = Dengue virus, DENV2, Huh-7, 48 h, read-out: EC50 DENV-2, Huh7 cells stably expressing DENV-2 replicon, 48 h
[5] = Dengue virus, DENV3, Huh-7, 48 h, read-out: EC50 DENV-3, Huh7 cells stably expressing DENV-3 replicon, 48 h
[6] = at the concentration up to 10 µM (data not shown)

SMILES: C[C@@H](c1ccc(Cl)cc1)n1nnc2c1NC(=O)C[C@]21C(=O)N(CCCN(C)C)c2ccc(Cl)cc21 [Compound 63, (R)-5'-Chloro-3-((S)-1-(4-chlorophenyl)ethyl)-1'-(3-(dimethylamino)propyl)-4,6-dihydrospiro[[1,2,3]triazolo[4,5-b]pyridine-7,3'-indoline]-2',5(3H)-dione]
- pEC50 (DENV-1 replicon): < 5.30
- pEC50 (DENV-2 replicon; [4]): 7.60
- pEC50 (DENV-3 replicon; [5]): 9.00
- pEC50 (DENV-4 replicon): < 5.30
- CC50 at 48 h [1]: > 10 µM
- increase of EC50 of resistant viruses (resistance fold vs P0 DENV-2) [2]: > 100 folds

SMILES: C[C@@H](c1ccc(Cl)cc1)n1nnc2c1NC(=O)C[C@@]21C(=O)N(CCOC(=O)CCCCCCCNC(=O)CCCC[C@@H]2SC[C@@H]3NC(=O)N[C@@H]32)c2ccc(Cl)cc21 [Compound 75, 2-((S)-5'-Chloro-3-((S)-1-(4-chlorophenyl)ethyl)-2',5-dioxo-3,4,5,6-tetrahydrospiro[[1,2,3]triazolo[4,5-b]pyridine-7,3'-indolin]-1'-yl)ethyl 8-(5-((3aS,4S,6aR)-2-oxohexahydro-1H-thieno[3,4-d]imidazol-4-yl)pentanamido)octanoate]
- remains active against DENV-2 (DENV-2 replicon; FIG. 1B): not
- remains active against DENV-3 (DENV-3 replicon; FIG. 1B): not
- pull down of / association with viral NS4B protein [3]: not

SMILES: C[C@@H](c1ccc(Cl)cc1)n1nnc2c1NC(=O)C[C@]21C(=O)N(CCN(C)CCS(C)(=O)=O)c2ccc(Cl)cc21 [Compound 60, (R)-5'-Chloro-3-((S)-1-(4-chlorophenyl)ethyl)-1'-(2-(methyl(2-(methylsulfonyl)ethyl)amino)ethyl)-4,6-dihydrospiro[[1,2,3]triazolo[4,5-b]pyridine-7,3'-indoline]-2',5(3H)-dione]
- pEC50 (DENV-1 replicon): < 5.30
- pEC50 (DENV-2 replicon; [4]): 7.11
- pEC50 (DENV-3 replicon; [5]): 7.74
- pEC50 (DENV-4 replicon): < 5.30
- CC50 at 48 h [1]: > 10 µM

SMILES: C[C@@H](c1ccc(Cl)cc1)n1nnc2c1NC(=O)C[C@]21C(=O)N(CCOC(=O)CCCCCCCNC(=O)CCCC[C@@H]2SC[C@@H]3NC(=O)N[C@@H]32)c2ccc(Cl)cc21 [Compound 73, 2-((R)-5'-Chloro-3-((S)-1-(4-chlorophenyl)ethyl)-2',5-dioxo-3,4,5,6-tetrahydrospiro[[1,2,3]triazolo[4,5-b]pyridine-7,3'-indolin]-1'-yl)ethyl 8-(5-((3aS,4S,6aR)-2-oxohexahydro-1H-thieno[3,4-d]imidazol-4-yl)pentanamido)octanoate]
- activity against DENV-1 (DENV-1 replicon; [6]): no significant activity
- pEC50 (DENV-2 replicon; [4]): 7.39
- pEC50 (DENV-3 replicon; [5]): 7.77
- activity against DENV-4 (DENV-4 replicon; [6]): no significant activity
- pull down of / association with viral NS4B protein [3]: can pull down viral NS4B protein; also recorded: associated with DENV-2 viral NS4B protein

SMILES: C[C@@H](c1ccc(Cl)cc1)n1nnc2c1NC(=O)C[C@]21C(=O)N(CCc2ccccc2)c2ccc(Cl)cc21 [Compound 32, (R)-5'-Chloro-3-((S)-1-(4-chlorophenyl)ethyl)-1'-phenethyl-4,6-dihydrospiro[[1,2,3]triazolo[4,5-b]pyridine-7,3'-indoline]-2',5(3H)-dione]
- pEC50 (DENV-1 replicon): 5.96
- pEC50 (DENV-2 replicon; [4]): 6.22
- pEC50 (DENV-3 replicon; [5]): 6.72
- pEC50 (DENV-4 replicon): < 5.30
- CC50 at 48 h [1]: > 10 µM

SMILES: C[C@@H](c1ccc(Cl)cc1)n1nnc2c1NC(=O)C[C@]21C(=O)N(CCCCCCCCN(C)C)c2ccc(Cl)cc21 [Compound 69, (R)-5'-Chloro-3-((S)-1-(4-chlorophenyl)ethyl)-1'-(8-(dimethylamino)octyl)-4,6-dihydrospiro[[1,2,3]triazolo[4,5-b]pyridine-7,3'-indoline]-2',5(3H)-dione]
- pEC50 (DENV-1 replicon): < 5.30
- pEC50 (DENV-2 replicon; [4]): 6.31
- pEC50 (DENV-3 replicon; [5]): 7.38
- pEC50 (DENV-4 replicon): < 5.30
- CC50 at 48 h [1]: > 10 µM

SMILES: CCCCN1C(=O)[C@]2(CC(=O)Nc3c2nnn3[C@@H](C)c2ccc(Cl)cc2)c2cc(Cl)ccc21 [Compound 10, (R)-1'-Butyl-5'-chloro-3-((S)-1-(4-chlorophenyl)ethyl)-4,6-dihydrospiro[[1,2,3]triazolo[4,5-b]pyridine-7,3'-indoline]-2',5(3H)-dione]
- pEC50 (DENV-1 replicon): 5.89
- pEC50 (DENV-2 replicon; [4]): 7.12
- pEC50 (DENV-3 replicon; [5]): 7.74
- pEC50 (DENV-4 replicon): < 5.30
- CC50 at 48 h [1]: > 10 µM

SMILES: C[C@@H](c1ccc(Cl)cc1)n1nnc2c1NC(=O)C[C@]21C(=O)N(CCCCN(C)C)c2ccc(Cl)cc21 [Compound 66, (R)-5'-Chloro-3-((S)-1-(4-chlorophenyl)ethyl)-1'-(4-(dimethylamino)butyl)-4,6-dihydrospiro[[1,2,3]triazolo[4,5-b]pyridine-7,3'-indoline]-2',5(3H)-dione]
- pEC50 (DENV-1 replicon): < 5.30
- pEC50 (DENV-2 replicon; [4]): 6.72
- pEC50 (DENV-3 replicon; [5]): 7.42
- pEC50 (DENV-4 replicon): < 5.30
- CC50 at 48 h [1]: > 10 µM

SMILES: C[C@@H](c1ccc(Cl)cc1)n1nnc2c1NC(=O)C[C@]21C(=O)N(CC2CC2)c2ccc(Cl)cc21 [Compound 17, (R)-5'-Chloro-3-((S)-1-(4-chlorophenyl)ethyl)-1'-(cyclopropylmethyl)-4,6-dihydrospiro[[1,2,3]triazolo[4,5-b]pyridine-7,3'-indoline]-2',5(3H)-dione]
- pEC50 (DENV-1 replicon): 5.51
- pEC50 (DENV-2 replicon; [4]): 6.96
- pEC50 (DENV-3 replicon; [5]): 7.77
- pEC50 (DENV-4 replicon): < 5.30
- CC50 at 48 h [1]: > 10 µM

SMILES: CC(C)N1C(=O)[C@]2(CC(=O)N(C(C)C)c3c2nnn3[C@@H](C)c2ccc(Cl)cc2)c2cc(Cl)ccc21 [Compound 22, (R)-5'-Chloro-3-((S)-1-(4-chlorophenyl)ethyl)-1',4-diisopropyl-4,6-dihydrospiro[[1,2,3]triazolo[4,5-b]pyridine-7,3'-indoline]-2ʹ,5(3H)-dione]
- pEC50 (DENV-1 replicon): 5.42
- pEC50 (DENV-2 replicon; [4]): < 5.00
- pEC50 (DENV-3 replicon; [5]): 5.82
- pEC50 (DENV-4 replicon): 5.52
- CC50 at 48 h [1]: > 10 µM

SMILES: COC(=O)CN1C(=O)C[C@]2(C(=O)Nc3ccc(Cl)cc32)c2nnn([C@@H](C)c3ccc(Cl)cc3)c21 [Compound 44, Methyl 2-((R)-5'-chloro-3-((S)-1-(4-chlorophenyl)ethyl)-2',5-dioxo-5,6-dihydrospiro[[1,2,3]triazolo[4,5-b]pyridine-7,3'-indolin]-4(3H)-yl)acetate]
- pEC50 (DENV-1 replicon): < 5.00
- pEC50 (DENV-2 replicon; [4]): < 5.00
- pEC50 (DENV-3 replicon; [5]): 5.57
- pEC50 (DENV-4 replicon): < 5.00
- CC50 at 48 h [1]: > 10 µM

SMILES: COCCCN1C(=O)[C@]2(CC(=O)Nc3c2nnn3[C@@H](C)c2ccc(Cl)cc2)c2cc(Cl)ccc21 [Compound 39, (R)-5'-Chloro-3-((S)-1-(4-chlorophenyl)ethyl)-1'-(3-methoxypropyl)-4,6-dihydrospiro[[1,2,3]triazolo[4,5-b]pyridine-7,3'-indoline]-2',5(3H)-dione]
- pEC50 (DENV-1 replicon): < 5.30
- pEC50 (DENV-2 replicon; [4]): 6.54 to 7.43
- pEC50 (DENV-2 replicon; read-out: EC50 DENV-2, Huh7 cells stably expressing DENV-2 replicon, 48 h): 7.40
- pEC50 (DENV-3 replicon; [5]): 7.12 to 8.05
- pEC50 (DENV-3 replicon; read-out: EC50 DENV-3, Huh7 cells stably expressing DENV-3 replicon, 48 h): 8.05
- pEC50 (DENV-4 replicon): < 5.30
- CC50 at 48 h [1]: > 10 µM
